What was measured:
[1] = tested on: Simian immunodeficiency virus; test: Inhibition of SIV-induced cytopathogenicity in CEM174 cells; format: functional, organism-based
[2] = Selectivity index, ratio of EC50 for SIV infected CEM174 cells to TC50 for CEM174 cells; format: functional
293T = test: Inhibition of Tat-mediated transactivation in human 293T cells assessed as CAT expression at 30 uM; format: cell-based; conditions: Human immunodeficiency virus 1
[3] = Cytotoxicity against CEM174 cells; format: cell-based; conditions: human, read-out: TC50 (the source's name)

SMILES	EC50 [1] [µM]	Selectivity index [2]	inhibition (293T) [%]	CC50 [3] [µM]
CCN(CC)CC[n+]1c(SCC(=O)NCCCNC(=N)N)[nH]c2c(C)nc(N(CC)CC)nc21	4.7	>21.3	36.2	> 100
CCN(CC)c1nc(C)c2[nH]c(SCC(=O)NCCN)[n+](CCCN(C)C)c2n1	3.4	>29.4	57.7	> 100
CCN(CC)CC[n+]1c(SCC(=O)NCCCN)[nH]c2c(C)nc(N(CC)CC)nc21	1.4	>71.4	43.3	> 100
CCN(CC)CC[n+]1c(SCC(=O)NCCN)[nH]c2c(C)nc(N(CC)CC)nc21	1.3	40.2	43.1	52.2
CCN(CC)c1nc(C)c2[nH]c(SCC(=O)NCCN)nc2n1	2	>50	65.7	> 100
CCN(CC)c1nc(C)c2[nH]c(SCC(=O)NCCNC(=N)N)nc2n1	4.2	>23.8	57.1	> 100
CCN(CC)c1nc(C)c2[nH]c(SCC(=O)NCCCNC(=N)N)[n+](CCCN(C)C)c2n1	3.2	>31.25	48.8	> 100
CCN(CC)c1nc(C)c2[nH]c(SCC(=O)NCCNC(=N)N)[n+](CCCN(C)C)c2n1	7.2	>13.9	50.2	> 100

The next molecules have a lower EC50 [1] than those just listed; values first:

EC50 [1] [µM]	SMILES	Selectivity index [2]	inhibition (293T) [%]	CC50 [3] [µM]
0.7	CCN(CC)c1nc(C)c2[nH]c(SCC(=O)NCCCNC(=N)N)nc2n1	>142.9	57.1	> 100
0.7	CCN(CC)CC[n+]1c(SCC(=O)NCCNC(=N)N)[nH]c2c(C)nc(N(CC)CC)nc21	>142.9	34.9	> 100
0.5	CCN(CC)c1nc(C)c2[nH]c(SCC(=O)NCCCN)nc2n1	>200	58.4	> 100
0.2	CCN(CC)c1nc(C)c2[nH]c(SCC(=O)NCCCN)[n+](CCCN(C)C)c2n1	>500	48.7	> 100
0.0122	Cc1cn([C@H]2C[C@H](N=[N+]=[N-])[C@@H](CO)O2)c(=O)[nH]c1=O [ZIDOVUDINE]			> 100
